Results reported in PubChem BioAssay AID1963969 (Molecular Pharmacology Branch, DTP, NCI, 2024).

Tested on: 817829-284-R-J1-PDC multi-cell spheroid viability
Experiment: Anticancer human tumor 817829-284-R-J1-PDC patient-derived colon adenocarcinoma cell line growth inhibition [PI3K]
Conditions: for IC50: curve of first compound; for viability, T/C: stronger effect = lower value
Summary of the method: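 Complex 3D spheroids (cancer cells + endothelial HUVEC + mesenchymal stem cells); drug pairs of targeted agent x inavolisib/alpelisib/duvelisib/copanlisib; half-log series from ~Cmax, max 10 microM if Cmax unknown; endpoint viability.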

[1] = second compound 0.00316 µM, first compound 0.000316 µM
[2] = second compound 0.00316 µM, first compound 0.001 µM
[3] = second compound 0.00316 µM, first compound 0.00316 µM
[4] = second compound 0.00316 µM, first compound 0.01 µM
[5] = second compound 0.00316 µM, first compound 0.0316 µM
[6] = second compound 0.00316 µM, first compound 0.1 µM
[7] = second compound 0.01 µM, first compound 0.000316 µM
[8] = second compound 0.01 µM, first compound 0.001 µM
[9] = second compound 0.01 µM, first compound 0.00316 µM
[10] = second compound 0.01 µM, first compound 0.01 µM
[11] = second compound 0.01 µM, first compound 0.0316 µM
[12] = second compound 0.01 µM, first compound 0.1 µM
[13] = second compound 0.0316 µM, first compound 0.000316 µM
[14] = second compound 0.0316 µM, first compound 0.001 µM
[15] = second compound 0.0316 µM, first compound 0.00316 µM
[16] = second compound 0.0316 µM, first compound 0.01 µM
[17] = second compound 0.0316 µM, first compound 0.0316 µM
[18] = second compound 0.0316 µM, first compound 0.1 µM
[19] = second compound 0.1 µM, first compound 0.000316 µM
[20] = second compound 0.1 µM, first compound 0.001 µM
[21] = second compound 0.1 µM, first compound 0.00316 µM
[22] = second compound 0.1 µM, first compound 0.01 µM
[23] = second compound 0.1 µM, first compound 0.0316 µM
[24] = second compound 0.1 µM, first compound 0.1 µM
[25] = second compound 0.316 µM, first compound 0.000316 µM
[26] = second compound 0.316 µM, first compound 0.001 µM
[27] = second compound 0.316 µM, first compound 0.00316 µM
[28] = second compound 0.316 µM, first compound 0.01 µM
[29] = second compound 0.316 µM, first compound 0.0316 µM
[30] = second compound 0.316 µM, first compound 0.1 µM
[31] = second compound 1 µM, first compound 0.000316 µM
[32] = second compound 1 µM, first compound 0.001 µM
[33] = second compound 1 µM, first compound 0.00316 µM
[34] = second compound 1 µM, first compound 0.01 µM
[35] = second compound 1 µM, first compound 0.0316 µM
[36] = second compound 1 µM, first compound 0.1 µM
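Note: spheroids exposed to agents for seven days before readout.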
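Throughout, for viability, T/C: percent of vehicle DMSO control viability which is 100%.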

## CC(=O)c1c(C)c2cnc(Nc3ccc(N4CCNCC4)cn3)nc2n(C2CCCC2)c1=O + COc1c(OCCCN2CCOCC2)ccc2c3n(c(=NC(=O)c4cnc(N)nc4)nc12)CCN3
Second compound 0.00316 µM
  IC50: 0.0523 µM
Second compound 0.01 µM
  IC50: > 0.1 µM
Second compound 0.0316 µM
  IC50: 0.0123 µM
Second compound 0.1 µM
  IC50: < 0.000316 µM
Second compound 0.316 µM
  IC50: < 0.000316 µM
Second compound 1 µM
  IC50: < 0.000316 µM
[1]
  viability, T/C: 79.1%
[2]
  viability, T/C: 85.2%
[3]
  viability, T/C: 66.7%
[4]
  viability, T/C: 74.5%
[5]
  viability, T/C: 66.6%
[6]
  viability, T/C: 30.2%
[7]
  viability, T/C: 91.1%
[8]
  viability, T/C: 60%
[9]
  viability, T/C: 56%
[10]
  viability, T/C: 55.7%
[11]
  viability, T/C: 75.7%
[12]
  viability, T/C: 34%
[13]
  viability, T/C: 65.2%
[14]
  viability, T/C: 40.6%
[15]
  viability, T/C: 48.3%
[16]
  viability, T/C: 60.6%
[17]
  viability, T/C: 33.5%
[18]
  viability, T/C: 24.3%
[19]
  viability, T/C: 29.2%
[20]
  viability, T/C: 30.3%
[21]
  viability, T/C: 34.6%
[22]
  viability, T/C: 21.1%
[23]
  viability, T/C: 22.7%
[24]
  viability, T/C: 25.3%
[25]
  viability, T/C: 16.9%
[26]
  viability, T/C: 22.2%
[27]
  viability, T/C: 20.8%
[28]
  viability, T/C: 17.9%
[29]
  viability, T/C: 18.2%
[30]
  viability, T/C: 16.2%
[31]
  viability, T/C: 11.2%
[32]
  viability, T/C: 10.2%
[33]
  viability, T/C: 8.91%
[34]
  viability, T/C: 12.2%
[35]
  viability, T/C: 11.6%
[36]
  viability, T/C: 7.24%

## CC(C)n1nc(-c2ccc3oc(N)nc3c2)c2c(N)ncnc21 + COc1c(OCCCN2CCOCC2)ccc2c3n(c(=NC(=O)c4cnc(N)nc4)nc12)CCN3
Second compound 0.00316 µM
  IC50: 0.0136 µM
Second compound 0.01 µM
  IC50: 0.0161 µM
Second compound 0.0316 µM
  IC50: 0.00526 µM
Second compound 0.1 µM
  IC50: < 0.000316 µM
Second compound 0.316 µM
  IC50: < 0.000316 µM
Second compound 1 µM
  IC50: < 0.000316 µM
[1]
  viability, T/C: 66.8%
[2]
  viability, T/C: 83.7%
[3]
  viability, T/C: 72.2%
[4]
  viability, T/C: 45.5%
[5]
  viability, T/C: 42.6%
[6]
  viability, T/C: 17.8%
[7]
  viability, T/C: 44%
[8]
  viability, T/C: 83.3%
[9]
  viability, T/C: 67.6%
[10]
  viability, T/C: 70.9%
[11]
  viability, T/C: 26.6%
[12]
  viability, T/C: 14.4%
[13]
  viability, T/C: 78.5%
[14]
  viability, T/C: 72.7%
[15]
  viability, T/C: 45.5%
[16]
  viability, T/C: 46.5%
[17]
  viability, T/C: 37.7%
[18]
  viability, T/C: 19.6%
[19]
  viability, T/C: 31.9%
[20]
  viability, T/C: 31.8%
[21]
  viability, T/C: 38%
[22]
  viability, T/C: 31.1%
[23]
  viability, T/C: 26.9%
[24]
  viability, T/C: 17%
[25]
  viability, T/C: 21.1%
[26]
  viability, T/C: 22.8%
[27]
  viability, T/C: 23.6%
[28]
  viability, T/C: 17.7%
[29]
  viability, T/C: 21.8%
[30]
  viability, T/C: 18.7%
[31]
  viability, T/C: 9.62%
[32]
  viability, T/C: 14%
[33]
  viability, T/C: 9.7%
[34]
  viability, T/C: 10.8%
[35]
  viability, T/C: 8.57%
[36]
  viability, T/C: 6.68%
